Measured values as given in patent US7803795B2, “Phthalazine derivatives as parp inhibitors” (Janssen Pharmaceutica N.V., priority 2004, dated 2010).

These molecules were tested against T1, TANK-2 enzyme (Homo sapiens, UniProt Q9H2K2) (assay: in vitro Scintillation Proximity Assay (SPA) for TANK-2 inhibitory activity).
T1 construct: His tag (inferred from capture on a Ni-coated plate); made in house
T1 sequence (Q9H2K2 1-1166): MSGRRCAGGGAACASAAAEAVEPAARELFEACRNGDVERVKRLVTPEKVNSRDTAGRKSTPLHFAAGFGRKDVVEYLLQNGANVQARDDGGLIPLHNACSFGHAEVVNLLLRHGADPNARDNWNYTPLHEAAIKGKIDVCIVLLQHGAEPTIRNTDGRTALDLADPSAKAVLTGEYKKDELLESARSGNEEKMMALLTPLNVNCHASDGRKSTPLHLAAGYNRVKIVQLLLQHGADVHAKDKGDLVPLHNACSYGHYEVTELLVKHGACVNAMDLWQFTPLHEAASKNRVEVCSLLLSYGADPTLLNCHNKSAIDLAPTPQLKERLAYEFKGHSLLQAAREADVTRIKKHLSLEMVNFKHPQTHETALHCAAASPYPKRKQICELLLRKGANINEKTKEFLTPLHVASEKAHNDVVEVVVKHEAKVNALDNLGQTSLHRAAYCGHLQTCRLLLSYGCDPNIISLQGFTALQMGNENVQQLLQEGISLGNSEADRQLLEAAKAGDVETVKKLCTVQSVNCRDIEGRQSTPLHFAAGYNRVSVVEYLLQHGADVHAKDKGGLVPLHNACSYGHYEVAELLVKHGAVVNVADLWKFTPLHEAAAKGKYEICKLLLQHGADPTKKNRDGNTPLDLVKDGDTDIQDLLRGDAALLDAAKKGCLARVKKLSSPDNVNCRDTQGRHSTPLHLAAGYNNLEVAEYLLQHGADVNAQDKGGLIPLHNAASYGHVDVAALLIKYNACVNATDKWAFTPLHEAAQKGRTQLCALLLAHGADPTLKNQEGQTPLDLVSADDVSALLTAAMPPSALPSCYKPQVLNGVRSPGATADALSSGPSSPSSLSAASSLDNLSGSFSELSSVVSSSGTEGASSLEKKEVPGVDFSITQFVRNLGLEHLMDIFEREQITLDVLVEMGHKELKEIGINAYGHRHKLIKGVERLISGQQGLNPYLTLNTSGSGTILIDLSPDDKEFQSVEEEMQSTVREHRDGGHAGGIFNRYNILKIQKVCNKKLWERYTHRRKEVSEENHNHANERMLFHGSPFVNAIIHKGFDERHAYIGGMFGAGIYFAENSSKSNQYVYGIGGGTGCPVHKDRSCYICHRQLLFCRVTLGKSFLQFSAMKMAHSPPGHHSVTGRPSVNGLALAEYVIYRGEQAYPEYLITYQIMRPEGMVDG
Format: biochemical
Method: In Vitro Scintillation Proximity Assay (SPA) for Tank-2 Inhibitory Activity
Compounds of the present invention were tested in an in vitro assay based on SPA technology with Ni Flash plates (96 or 384 well).
In principle, the assay relies upon SPA technology for the detection of auto-poly(ADP-ribosylation of TANK-2 protein using [^3H]-nicotinamide adenine dinucleotide ([^3H]-NAD^+) as ADP-ribosyl donor.
A stock solution of [^3H]-NAD^+/NAD was made by adding 64.6 μl of [^3H]-NAD^+ (0.1 mCi/ml, supplier: Perkin Elmer) and 46.7 μl NAD-stock (10.7 mM, stored at −20° C., supplier Roche) to 1888.7 μl assay buffer (60 mM Tris/HCl, pH 7.4; 0.9 mM DTT; 6 mM MgCl2). The TANK-2 enzyme was produced as described in EP1238063.60 μl of assay buffer, together with 1 μl of compound in DMSO, 20 μl of [^3H]-NAD^+/NAD and 20 μl of TANK-2 enzyme (final concentration 6 μg/ml) was added per well into a 96-well Ni-coated flash plate (Perkin Elmer). After incubation of the mixture for 120 min. at room temperature, the reaction was terminated by adding 60 μl of stopsolution (42.6 mg NAD in 6 ml H2O). The plates were covered with a plate sealer and placed in a TopCountNXT™ (Packard) for scintillation counting. Values were expressed as counts per minute (cpm). For each experiment, controls (containing TANK-2 enzyme and DMSO without compound), a blank incubation (containing DMSO but no TANK-2 enzyme or compound) and samples (containing TANK-2 enzyme and compound dissolved in DMSO) were run in parallel. All compounds tested were dissolved and eventually further diluted in DMSO. […] In each test, the blank value was subtracted from both the control and the sample values. The control sample represented maximal TANK-2 enzyme activity. For each sample, the amount of cpm was expressed as a percentage of the mean cpm value of the controls. When appropriate, IC50-values (concentration of the drug, needed to reduce the TANK-2 enzyme activity to 50% of the control) were computed using linear interpolation between the experimental points just above and below the 50% level. Herein the effects of test compounds are expressed as pIC50 (the negative log value of the IC50-value). As reference compounds, 3-aminobenzamide and 4-amino-1,8-naphthalimide were included to validate the SPA assay. Herein the assay was described using 96-well plates. In the assay using 384-well plates the same final concentrations were used and volumes were adapted.

Row | SMILES | IC50
1 | O=c1[nH]nc(NC2CCCNCC2)c2ccccc12 (centres unmarked) [Compound 34] | > 10 µM
2 | CCOC(=O)N1CCC(Nc2n[nH]c(=O)c3ccccc23)C1 (centres unmarked) [Compound 48] | > 10 µM
3 | CCOC(=O)N1CCC(c2n[nH]c(=O)c3ccccc23)CC1 [Compound 25] | > 10 µM
4 | Cc1nnc(N2CCN(CCn3c(=O)[nH]c4ccccc4c3=O)CC2)c2ccccc12 [Compound 70] | 3.73 µM
5 | CCOC(=O)N1CCCC(Nc2n[nH]c(=O)c3ccccc23)CC1 (centres unmarked) [Compound 50] | > 10 µM
6 | Clc1nnc(NC2CCN(CCCCOc3ccccc3)CC2)c2ccccc12 [Compound 59] | > 10 µM
7 | O=c1[nH]nc(C2CCN(CCCOc3ccc(F)cc3)CC2)c2ccccc12 [Compound 13] | > 10 µM
8 | Cc1nnc(N2CCN(CCCC(c3ccc(F)cc3)c3ccc(F)cc3)CC2)c2ccccc12 [Compound 29] | > 10 µM
9 | Cc1nc2ccccn2c(=O)c1CCN1CCN(c2nnc(C)c3ccccc23)CC1 [Compound 72] | > 10 µM
10 | Cc1nc2n(c(=O)c1CCN1CCN(c3nnc(C)c4ccccc34)CC1)CCCS2 [Compound 76] | > 10 µM
11 | CCOC(=O)N1[C@@H]2CC[C@H]1C[C@H](Nc1nnc(Cl)c3ccccc13)C2 [Compound 24] | 4.37 µM
12 | O=c1[nH]nc(NC2CCN(CCCCOc3ccccc3)CC2)c2ccccc12 [Compound 46] | > 10 µM
13 | Fc1ccc(C(CCCN2CCN(c3nnc(Cl)c4ccccc34)CC2)c2ccc(F)cc2)cc1 [Compound 57] | 5.08 µM
14 | CCOC(=O)N1[C@@H]2CC[C@H]1C[C@H](Nc1n[nH]c(=O)c3ccccc13)C2 [Compound 11] | 2.13 µM
15 | O=c1[nH]nc(NC2CCCN(CCCC(c3ccc(F)cc3)c3ccc(F)cc3)CC2)c2ccccc12 (centres unmarked) [Compound 30] | 4 µM
16 | O=c1[nH]nc(N2CCC(c3cccc(C(F)(F)F)c3)C2)c2ccccc12 (centres unmarked) [Compound 55] | 1.5 µM
17 | O=c1[nH]nc(N2CCN(CCCC(c3ccc(F)cc3)c3ccc(F)cc3)CC2)c2ccccc12 [Compound 52] | 6.55 µM
18 | O=c1[nH]nc(NC2CCN(C/C=C/c3ccccc3)CC2)c2ccccc12 [Compound 65] | > 10 µM
19 | O=c1[nH]nc(NCC2CCCN(CCCC(c3ccc(F)cc3)c3ccc(F)cc3)C2)c2ccccc12 (centres unmarked) [Compound 49] | 1.56 µM
20 | CCOC(=O)N1CCC(Nc2n[nH]c(=O)c3ccccc23)CC1 [Compound 56] | > 10 µM
21 | Cc1nc2sccn2c(=O)c1CCN1CCN(c2nnc(C)c3ccccc23)CC1 [Compound 73] | > 10 µM

Row | SMILES | IC50
22 | O=c1[nH]nc(C2CCN(CCCC(c3ccc(F)cc3)c3ccc(F)cc3)CC2)c2ccccc12 [Compound 67] | > 10 µM
23 | Cc1nc2scc(C)n2c(=O)c1CCN1CCN(c2nnc(C)c3ccccc23)CC1 [Compound 74] | 4.69 µM
24 | Cc1nc2n(c(=O)c1CCN1CCN(c3nnc(C)c4ccccc34)CC1)CCS2 [Compound 75] | > 10 µM
25 | O=c1[nH]nc(NCC2CCCN(Cc3ccccc3)C2)c2ccccc12 (centres unmarked) [Compound 44] | > 10 µM
26 | O=c1[nH]nc(NC2CCN(C[C@@H](O)[C@@H]3CCc4ccccc4O3)CC2)c2ccccc12 (relative stereo) [Compound 27] | > 10 µM
27 | O=c1[nH]nc(C2CCN(Cc3ccccc3)CC2)c2ccccc12 [Compound 1] | 8.43 µM
28 | CN(c1nc2ccccc2s1)C1CCN(c2nnc(Cl)c3ccccc23)CC1 [Compound 61] | > 10 µM
29 | CCOC(=O)N1CCN(c2nnc(Cl)c3ccccc23)CC1 [Compound 58] | 9.02 µM
30 | O=c1[nH]nc(NC2CCCN(Cc3ccccc3)C2)c2ccccc12 (centres unmarked) [Compound 53] | > 10 µM
31 | O=c1[nH]nc(N[C@@H]2C[C@H]3CC[C@@H](C2)N3)c2ccccc12 [Compound 15] | > 10 µM
32 | O=c1[nH]nc(C2CCNCC2)c2ccccc12 [Compound 4] | > 10 µM
33 | Clc1nnc(NC2CCN(Cc3ccccc3)C2)c2ccccc12 (centres unmarked) [Compound 12] | 9.27 µM
34 | Clc1nnc(N2CCN(c3ccccc3)CC2)c2ccccc12 [Compound 77] | 8.83 µM
35 | Cc1nnc(N2CCN(CCn3c(=O)[nH]c4ccccc43)CC2)c2ccccc12 [Compound 71] | > 10 µM
36 | O=c1[nH]nc(C2CCN(c3ncccn3)CC2)c2ccccc12 [Compound 69] | 5.52 µM
37 | O=c1[nH]nc(NC2CCN(Cc3ccccc3)C2)c2ccccc12 (centres unmarked) [Compound 51] | > 10 µM
38 | COc1ccc(CCN2CCC(Nc3n[nH]c(=O)c4ccccc34)CC2)cc1 [Compound 63] | > 10 µM
39 | O=c1[nH]nc(C2CCN(C/C=C/c3ccccc3)CC2)c2ccccc12 [Compound 66] | 4.33 µM
40 | O=c1[nH]nc(C2CCN(CCCCOc3ccccc3)CC2)c2ccccc12 [Compound 68] | > 10 µM
41 | O=c1[nH]nc(N[C@@H]2C[C@H]3CC[C@@H](C2)N3CCCC(c2ccc(F)cc2)c2ccc(F)cc2)c2ccccc12 [Compound 3] | 5.05 µM
